Measurements as given in patent publication US7601846B2, “Compounds having activity as inhibitors of apoptosis” (The Regents of the University of California, priority 2001, dated 2009).
Where a name gives a salt, the structure may show the parent alone. Read-outs that look alike come from different tables or passages of the source. One block for each molecule: values may come before it.

Experiments:
[1] = test system: Murine thymocytes; test: Dexamethasone-induced thymocyte apoptosis assay (DiOC6/PI staining, flow cytometry); assay type: cell-based; conditions: Mus musculus, 6 hours; for viability at 10 µM: compound 10 μM; for viability at 10 µM / viability at 5 µM: challenged with DEX, control 72 ± 4, DEX alone 36 ± 7, read-out: Average cell survival (%) Average alive cells (%); for viability at 5 µM: compound tested at 5 μM (footnote b); for EC50: 5 μM dexamethasone
Method: All of the compounds were screened in the thymocyte assay for cytotoxicity and their ability to prevent dexamethasone-induced cell death. Murine thymocytes were exposed to 10 μM or 5 μM of each compound in the presence or absence of DEX for six hours and then assayed for their in vitro viability by 3,3′-dihexyloxacarbocyanine iodide (DiOC6) and propidium iodide (PI) staining, and flow cytometry. When cell death signals converge on the mitochondria, there is a loss of the inner mitochondrial membrane potential and cells can no longer retain the dye DiOC6 as an indicator of apoptosis. Once cells lose the integrity of the outer cell membrane, then the dye propidium iodide is no longer excluded from these cells. The percentage of viable cells, which retained DiOC6 and excluded PI was compared to cells treated with DEX alone.
Apoptosis assays. Thymocytes were harvested from young C57B1/6 mice and cultured at 37° C. in 5% CO2 in RPMI 1640 containing 10% FBS, 1% Penicillin/Streptomycin (Gibco BRL, Rockville, Md.). Thymocytes were plated at a density of 10^7 cells/mL and pre-incubated with 5-10 μM of each compound (from 10 mM stock in DMSO) for 30 minutes before induction of apoptosis. Apoptosis was induced with 5 μM dexamethasone or by exposure to 6 Gy gamma radiation. After 6 hours, cell apoptosis was assayed by propidium iodide (PI) and 3,3′ dihexyloxacarbocyanine iodide (DiOC6) staining. The cells were removed from the plate and incubated for 30 minutes in medium with 40 nM DiOC6 and 5 μg/mL PI and then analyzed by flow cytometry in a FACS caliber (Beckton-Dickinson, San Jose, Calif.). Viable cells had high DiOC6 (FL-1) and low PI (FL-3), whereas apoptotic cells had low DiOC6 (FL-1) and low PI (FL-3). To evaluate the EC50s the thymocytes were pre-exposed to graded concentrations of selected compounds for 30 minutes and then apoptosis was induced with 5 μM dexamethasone. After 6 hours the cells were harvested and stained as above.
The concentration (EC50) of each compound that inhibited dexamethasone-induced cell death by 50% was determined by nonlinear regression fitting of the data to a one-site model. Pseudo Hill slopes were determined by nonlinear regression fit of the data to a sigmoidal dose-response equation (variable slope): % viability=minimum % viability+(maximum−minimum % viability)/[1+10(log EC50−X)^n], where X is the logarithm of inhibitor concentration, and n is the pseudo Hill slope and the maximum and minimum % viability were experimentally determined after dexamethasone exposure and drug treatment. EC50 values and 95% confidence intervals (CI) were derived from the sigmoid fits to the percent control transformed data shown using GraphPad Prism version 4.0b for Macintosh (GraphPad Software, San Diego, Calif.).

[2] = test system: Bax, PUMA, noxa, DR5 (killer) mRNA; test: Modulation of proapoptotic genes by real time PCR in DEX-treated thymocytes; assay type: cell-based, mouse
Method: Four proapoptotic genes were tested by real time PCR. […] PUMA and noxa belong to the BH3-only protein subclass while Bax is a multidomain member of the family. DR5 (also called killer) is an apoptosis-inducing membrane receptor for tumor necrosis factor-related apoptosis-inducing ligand (also called TRAIL and Apo2 ligand). DR5 is a transcriptional target of p53, and its over expression induces cell death in vitro (Finnberg et al., Molecular and Cellular Biology 2005, 25, 2000-2013).

[3] = test system: PUMA; test: PUMA protein expression in DEX-treated thymocytes (western blot); assay type: cell-based, mouse; conditions: thymocytes pretreated with 10 μM compound, 5 μM dexamethasone 6 hours, FIG. 6
Method: Thymocytes were pretreated with 10 μM of the indicated compounds and then exposed to 5 μM of dexamethasone for 6 hours. The cytosolic proteins were fractionated and then separated on a 4-12% gradient gel by SDS-PAGE and transferred to a PDVF membrane, which was probed with antibodies to PUMA and actin.
After removal of medium, cells were disrupted in lysis buffer (10 mM HEPES pH 7.9, 10 mM KCl, 0.1 mM EDTA, 0.1 mM EGTA, 1 mM dithiothreitol, 0.5 mM phenylmethylsulfonyl fluoride, and 0.6% NP-40) on ice. The nuclei were separated by centrifugation and the cytoplasmic sample removed. The nuclear pellets were resuspended in (20 mM HEPES pH 7.9, 0.4 M NaCl, 1.0 mM EDTA, 1.0 mM EGTA, 1 mM dithiothreitol, 0.1 mM phenylmethylsulfonyl fluoride) and the insoluble material was removed by centrifugation. The samples were heated to 70° C. for 10 minutes in loading buffer with 10 mM DTT. Each lane of an SDS-PAGE gel was loaded with 20 μg of protein. After electrophoresis, the proteins were transferred to a polyvinylidene difluoride (PVDF) membrane, blocked with 2% I-block™ (Tropix Inc, Bedford, Mass.) containing 0.05% Tween-20 in PBS, and then incubated with anti-PUMA (AbCam, Inc., Cambridge, Mass.). Horseradish peroxidase-conjugated anti-IgG (Santa Cruz Laboratories, Santa Cruz, Calif.) was used as the secondary antibody. […]

[4] = test system: spontaneous apoptosis and fludarabine-induced apoptosis; test: Protection against spontaneous and fludarabine-induced apoptosis (FIG. 2); assay type: cell-based
[5] = cited from earlier work
[6] = Table 2, 30 minutes pre-exposure, read-out: EDEC50 (μM) of compounds in thymocyte apoptosis assay (first value in cell) (converted)
[7] = Table 1, 30 minutes pre-exposure, read-out: EDEC50 (μM) of compounds in thymocyte apoptosis assay
[8] = mouse thymocytes treated with DEX, FIG. 5

SMILES: c1coc(-c2cn3c(n2)sc2ccccc23)c1 [Compound 3, 2-Furan-2-yl-imidazo[2,1-b]benzothiazole hydrobromide salt]
- viability at 10 µM [1]: 16%

SMILES: Cc1ccc(-c2cn3c(n2)sc2cc(O)ccc23)cc1 [Compound 4, 2-p-Tolyl-benzo[d]imidazo[2,1-b]thiazol-7-ol]
- viability at 5 µM [1]: 19%

SMILES: Brc1ccc(-c2cn3c(n2)sc2ccccc23)cc1 [Compound 5]
- viability at 10 µM [1]: 22%

SMILES: Cc1ccc(-c2nc3sc4ccccc4n3c2Br)cc1 [Compound 6, 3-Bromo-2-p-tolyl-imidazo[2,1-b]benzothiazole]
- viability at 5 µM [1]: 24%

SMILES: Cc1ccc(-c2cn3c(n2)sc2cc(N)ccc23)cc1 [Compound 7, 2-p-Tolyl-imidazo[2,1-b]benzothiazol-7-ylamine]
- viability at 10 µM [1]: 27%

SMILES: c1ccc2c(c1)sc1nc(-c3ccc(C4CCCC4)cc3)cn12 [Compound 8, 2-(4-Cyclopentyl-phenyl)-imidzxo[2,1-b]benzothiazoles hydrobromide salt]
- viability at 10 µM [1]: 36%

SMILES: Cc1ccc(-c2cn3c(n2)sc2cc(Br)ccc23)cc1 [Compound 9, 7-Bromo-2-p-tolylimidazo[2,1-b]benzothiazole hydrobromide salt]
- viability at 10 µM [1]: 39%

- EC50 [1, 6]: 8.12 µM
SMILES: c1ccc(-c2ccc(-c3cn4c(n3)sc3ccccc34)cc2)cc1 [Compound 10]
- viability at 10 µM [1]: 59%

- EC50 [1, 7]: 4.44 µM
SMILES: COc1ccc2c(c1)sc1nc(-c3ccc(C)cc3)cn12 [Compound 11, 7-Methoxy-2-p-tolyl-imidazo[2,1-b]benzothiazole hydrobromide salt]
- viability at 5 µM [1]: 68%

- EC50 [1, 7]: 10.2 µM
SMILES: c1ccc(-c2cn3c(n2)sc2ccccc23)cc1 [Compound 12]
- viability at 10 µM [1]: 73%

- EC50 [1, 6]: 1.22 µM
SMILES: Cc1ccc(-c2cn3c(n2)sc2ccccc23)cc1 [Compound 13]
- viability at 5 µM [1]: 73%

- EC50 [1, 6]: 4.02 µM
SMILES: c1ccc2cc(-c3ccc(-c4cn5c(n4)sc4ccccc45)cc3)ccc2c1 [Compound 14]
- viability at 5 µM [1]: 75%

- EC50 [1, 6]: 0.35 µM
SMILES: Br.c1ccc2c(c1)sc1nc(-c3ccc(N4CCCC4)cc3)cn12 [Compound 15, 2-(4-Pyrrolidin-1-yl-phenyl)-benzo[d]imidazo[2,1-b]thiazole hydrobromide salt]
- mRNA level of bax and killer relative to control [2, 8]: below it
- mRNA level of proapoptotic genes (Bax, PUMA, noxa, DR5) relative to control [2, 8]: close to that of the control
- PUMA protein expression (western blot) [3]: total inhibition
- viability at 5 µM [1]: 78%

SMILES: C[C@@H]1C[C@H]2[C@@H]3CCC4=CC(=O)C=C[C@]4(C)[C@@]3(F)[C@@H](O)C[C@]2(C)[C@@]1(O)C(=O)CO [Dexamethasone, reference compound]
- Increase of PUMA mRNA upon treatment ([2]; mouse thymocytes, DEX treatment alone): over 9 fold

SMILES: Cc1ccc(-c2cn3c4c(sc3n2)CCCC4)cc1 [IBT]
- Effect against fludarabine-induced apoptosis [4]: protective effect
- Effect against spontaneous apoptosis [4]: protective effect

SMILES: Cc1ccc(C(=O)Cn2c3c(sc2=N)CCCC3)cc1 [PFT-α, 2-(2-imino-4,5,6,7-tetrahydro-benzothiazol-3-yl)-1-p-tolyl-ethanone hydrobromide, reference compound]
- PUMA protein expression (western blot) [3]: partial inhibition
- Stability under physiologic conditions [5]: not stable
